Patent publication US4877893A, “Process for the preparation of 2-(O-alkyl)-2-thio-1,3,2-oxathiophospholanes” (priority 1987, dated 1989)

What was measured:
Type in all cases: cell-based
Penicillium sp. = assay: Fungicidal effect on paprika seeds on agar, colony diameter; details: 5th day, control 23.35
Procedure: (§1) The test is carried out on paprika seeds placed on agar nutrient medium and impregnated with phytopathogenic Fungi (Alternaria sp., Penicillium sp., Sclerotinia sp.). The paprika seeds are treated with various doses of 2-(0-2'-chloroethyl)-2-thio-1,3,2-oxathiophospholane (Compound No. 1 of Table I) and the known fungicidal agent Aliette, respectively.
(§2) The concentration data relate to the active ingredient. Treatment is carried out by using a 20 EC prepared according to Example 27. Evaluation is carried out on the 5th day after treatment by measuring the diameter of the Fungi colonies.

Alternaria sp. = assay: as above; details: 5th day, control 36.62
Procedure: as §1, §2

Sclerotinia sp. = assay: as above; details: 5th day, control 41.50
Procedure: as §1, §2

Alternaria tenuis = assay: Fungicidal effect on infected agar nutrient media, colony diameter; details: 5th day after treatment, untreated control 36.8
Summary of the method: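 Agar media (70 mm diameter, 10 mm thick) infected with Alternaria tenuis, treated with EC formulations at 1, 10, 100 and 1000 ppm active ingredient. Fungicidal effect read on day 5 after treatment as fungal colony diameter.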

Sclerotinia sclerotinia = assay: as above; details: 3rd day after treatment, untreated control 41.7
Procedure: Agar nutrient media (Diameter 70 MM, thickness 10 mm) infected by Sclerotonia sclerotinia suspension are treated with 20 EC formulations prepared according to Example 27 and comprising 1, 10, 100 and 1000 ppm, respectively of the active ingredient of the Formula I. The fungicidal effect of the compositions is evaluated on the 3rd day after treatment by measuring the diameter of the Fungi colonies.

Penicillium cyclopium = assay: as above; details: 7th day after treatment, untreated 26.5
Summary of the method: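 Agar media (70 mm diameter, 10 mm thick) infected with Penicillium cyclopium were treated with EC formulations at 1, 10, 100 and 1000 ppm active ingredient. Fungal colony diameter was measured on day 7 after treatment.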

CCO[PH](=O)O [Aliette, aluminum-tris-(O-ethyl-phosphate), reference compound]
Diameter of Colony (MM) Penicillium (Penicillium sp.; 1 ppm): 21.35 MM
Diameter of Colony (MM) Penicillium (Penicillium sp.; 5 ppm): 20.66 MM
Diameter of Colony (MM) Penicillium (Penicillium sp.; 10 ppm): 18.45 MM
Diameter of Colony (MM) Penicillium (Penicillium sp.; 50 ppm): 17.63 MM
Diameter of Colony (MM) Penicillium (Penicillium sp.; 100 ppm): 16.62 MM
Diameter of Colony (MM) Penicillium (Penicillium sp.; 1000 ppm): 10.15 MM
Diameter of Colony (MM) Alternaria (Alternaria sp.; 1 ppm): 34.05 MM
Diameter of Colony (MM) Alternaria (Alternaria sp.; 5 ppm): 35.16 MM
Diameter of Colony (MM) Alternaria (Alternaria sp.; 10 ppm): 29.41 MM
Diameter of Colony (MM) Alternaria (Alternaria sp.; 50 ppm): 26.13 MM
Diameter of Colony (MM) Alternaria (Alternaria sp.; 100 ppm): 19.16 MM
Diameter of Colony (MM) Alternaria (Alternaria sp.; 1000 ppm): 8.92 MM
Diameter of Colony (MM) Sclerotinia (Sclerotinia sp.; 1 ppm): 40.45 MM
Diameter of Colony (MM) Sclerotinia (Sclerotinia sp.; 5 ppm): 39.64 MM
Diameter of Colony (MM) Sclerotinia (Sclerotinia sp.; 10 ppm): 36.44 MM
Diameter of Colony (MM) Sclerotinia (Sclerotinia sp.; 50 ppm): 28.06 MM
Diameter of Colony (MM) Sclerotinia (Sclerotinia sp.; 100 ppm): 22.40 MM
Diameter of Colony (MM) Sclerotinia (Sclerotinia sp.; 1000 ppm): 6.75 MM

CCCCOP1(=S)OC(C)CS1 (stereo not drawn) [Compound 64]
Diameter of colony (mm) (Alternaria tenuis; 1 ppm): 34.6 mm
Diameter of colony (mm) (Alternaria tenuis; 10 ppm): 26.1 mm
Diameter of colony (mm) (Alternaria tenuis; 100 ppm): 4.5 mm
Diameter of colony (mm) (Alternaria tenuis; 1000 ppm): 0 mm
Diameter of colony (mm) (Sclerotinia sclerotinia; 1 ppm): 36.9 mm
Diameter of colony (mm) (Sclerotinia sclerotinia; 10 ppm): 28.7 mm
Diameter of colony (mm) (Sclerotinia sclerotinia; 100 ppm): 3.0 mm
Diameter of colony (mm) (Sclerotinia sclerotinia; 1000 ppm): 0 mm
Diameter of colony (mm) (Penicillium cyclopium; 1 ppm): 26.0 mm
Diameter of colony (mm) (Penicillium cyclopium; 10 ppm): 20.0 mm
Diameter of colony (mm) (Penicillium cyclopium; 100 ppm): 8.7 mm
Diameter of colony (mm) (Penicillium cyclopium; 1000 ppm): 0 mm

CCCCC(C)OP1(=S)OC(C)C(C)S1 (stereo not drawn) [Compound 65]
Diameter of colony (mm) (Alternaria tenuis; 1 ppm): 33.8 mm
Diameter of colony (mm) (Alternaria tenuis; 10 ppm): 25.3 mm
Diameter of colony (mm) (Alternaria tenuis; 100 ppm): 6.6 mm
Diameter of colony (mm) (Alternaria tenuis; 1000 ppm): 0 mm
Diameter of colony (mm) (Sclerotinia sclerotinia; 1 ppm): 35.8 mm
Diameter of colony (mm) (Sclerotinia sclerotinia; 10 ppm): 30.1 mm
Diameter of colony (mm) (Sclerotinia sclerotinia; 100 ppm): 3.7 mm
Diameter of colony (mm) (Sclerotinia sclerotinia; 1000 ppm): 0 mm
Diameter of colony (mm) (Penicillium cyclopium; 1 ppm): 24.6 mm
Diameter of colony (mm) (Penicillium cyclopium; 10 ppm): 19.1 mm
Diameter of colony (mm) (Penicillium cyclopium; 100 ppm): 7.5 mm
Diameter of colony (mm) (Penicillium cyclopium; 1000 ppm): 0 mm

CCCC(C)OP1(=S)OC(C)C(C)S1 (stereo not drawn) [Compound 66]
Diameter of colony (mm) (Alternaria tenuis; 1 ppm): 34.5 mm
Diameter of colony (mm) (Alternaria tenuis; 10 ppm): 24.4 mm
Diameter of colony (mm) (Alternaria tenuis; 100 ppm): 7.0 mm
Diameter of colony (mm) (Alternaria tenuis; 1000 ppm): 0 mm
Diameter of colony (mm) (Sclerotinia sclerotinia; 1 ppm): 34.8 mm
Diameter of colony (mm) (Sclerotinia sclerotinia; 10 ppm): 28.8 mm
Diameter of colony (mm) (Sclerotinia sclerotinia; 100 ppm): 4.0 mm
Diameter of colony (mm) (Sclerotinia sclerotinia; 1000 ppm): 0 mm
Diameter of colony (mm) (Penicillium cyclopium; 1 ppm): 25.0 mm
Diameter of colony (mm) (Penicillium cyclopium; 10 ppm): 18.6 mm
Diameter of colony (mm) (Penicillium cyclopium; 100 ppm): 7.5 mm
Diameter of colony (mm) (Penicillium cyclopium; 1000 ppm): 0 mm

CC(C)CCOP1(=S)OCCS1 (stereo not drawn) [Compound 67]
Diameter of colony (mm) (Alternaria tenuis; 1 ppm): 35.4 mm
Diameter of colony (mm) (Alternaria tenuis; 10 ppm): 23.8 mm
Diameter of colony (mm) (Alternaria tenuis; 100 ppm): 5.3 mm
Diameter of colony (mm) (Alternaria tenuis; 1000 ppm): 0 mm
Diameter of colony (mm) (Sclerotinia sclerotinia; 1 ppm): 36.3 mm
Diameter of colony (mm) (Sclerotinia sclerotinia; 10 ppm): 29.6 mm
Diameter of colony (mm) (Sclerotinia sclerotinia; 100 ppm): 3.6 mm
Diameter of colony (mm) (Sclerotinia sclerotinia; 1000 ppm): 0 mm
Diameter of colony (mm) (Penicillium cyclopium; 1 ppm): 25.1 mm
Diameter of colony (mm) (Penicillium cyclopium; 10 ppm): 19.3 mm
Diameter of colony (mm) (Penicillium cyclopium; 100 ppm): 7.0 mm
Diameter of colony (mm) (Penicillium cyclopium; 1000 ppm): 0 mm
